Results from paper PMC10835127, “Viruses traverse the human proteome through peptide interfaces that can be biomimetically leveraged for drug discovery” (Proceedings of the National Academy of Sciences of the …, 2024).
Read-outs that look alike come from different tables or passages of the source.

Key:
HIV1 strain NL4-3 = assay type: cell-based; details: normalized mean of HIV1 replication readout
EBV = details: normalized mean of EBV replication readout
[1] = system: F. novicida (strain U112); assay type: cell-based
HCV replicon = assay type: cell-based; details: for HCV Norm MEAN: normalized mean of HCV replicon readout
influenza A H1N1 virus = details: 48 hr post-treatment, A549

| Substance | HIV1 Norm MEAN (HIV1 strain NL4-3; peptide screen) | EBV Norm MEAN (EBV; peptide screen) | Francisella novicida Norm AUC [1] | HCV Norm MEAN (HCV replicon; peptide screen) | Neuraminidase activity normalized to vehicle (influenza A H1N1 virus; 200 µM peptide) | Neuraminidase activity normalized to vehicle (influenza A H1N1 virus; 0,823 µM peptide) | Neuraminidase activity normalized to vehicle (influenza A H1N1 virus; 22,2 µM peptide) | Neuraminidase activity normalized to vehicle (influenza A H1N1 virus; 2,4691 µM peptide) | Neuraminidase activity normalized to vehicle (influenza A H1N1 virus; 7,4074 µM peptide) | Neuraminidase activity normalized to vehicle (influenza A H1N1 virus; 66,6667 µM peptide) | HIV1 Norm MEAN (HIV1 strain NL4-3) | EBV Norm MEAN (EBV) | HCV Norm MEAN (HCV replicon) | activity in HCV screen (in words) (HCV replicon; 20 µM peptide, Huh7, replicon luciferase) |
| --- | --- | --- | --- | --- | --- | --- | --- | --- | --- | --- | --- | --- | --- | --- |
| EALKKALRRHRFLWQRR [CPEP73] | 0.2962 | 2.469 | 1.711 | 0.02817 | 0,1338 | 1,11 | 1,1241 | 0,9956 | 1,1329 | 0,4622 |  |  |  |  |
| CPEP14: peptide of the viral peptide library; sequence page not shown (ILHTPGCVPCVR) |  |  | 1.22 |  | 0,9254 | 0,9272 | 1,0033 | 0,9392 | 0,9017 | 1,0554 | 0.4683 | 1.5484 | 0.5608 |  |
| WGCSGKLICTTTVPW [CPEP84] | 0.7328 | 0.6808 | 1.224 | 0.9118 | 0,0819 | 0,9093 | 0,9299 | 0,9765 | 0,9455 | 0,3888 |  |  |  |  |
| RQARRNRRR [CPEP110] |  |  | 1.637 |  | 0,8723 | 1,0272 | 0,8952 | 0,9228 | 0,9411 | 0,8493 | 0.3127 | 2.204 | 0.05205 |  |
| CMSCCRSSRTRRETQL [CPEP57] | 1.032 | 0.8928 | 0.5573 | 0.7555 | 0,9828 | 1,0672 | 1,1821 | 0,702 | 1,111 | 0,9599 |  |  |  |  |
| PYQLT [CPEP58] |  |  | 0.486 |  | 0,7155 | 0,7664 | 0,8252 | 0,7115 | 0,806 | 0,8444 | 1.506 | 0.8535 | 0.1961 |  |
| CPEP86: peptide of the viral peptide library; sequence page not shown (SGFGPLITHG) |  |  | 0.8325 |  | 0,9563 | 0,7964 | 1,0588 | 1,0728 | 0,943 | 1,0345 | 0.7849 | 1.554 | 0.5296 |  |
| MSKKPGGPGKNRAVN [CPEP42] | 0.4686 | 0.6277 | 1.093 | 0.9525 | 0,9312 | 0,9146 | 1,055 | 0,9945 | 0,9864 | 1,0215 |  |  |  |  |
| YRHHY [CPEP48] |  |  | 0.6002 |  | 1,01 | 0,9611 | 1,0228 | 0,8941 | 0,9555 | 1,0901 | 1.395 | 1.742 | 0.151 |  |
| QILVESPTVLESGTKE [CPEP80] | 0.6346 | 0.8761 | 0.9366 | 0.9076 | 0,8685 | 1,0444 | 1,1492 | 1,0137 | 1,0974 | 0,9708 |  |  |  |  |
| RHIICHGGVI [CPEP133] |  |  | 0.5145 |  | 0,0947 | 0,951 | 0,4954 | 0,9186 | 0,811 | 0,1797 | 7.136 | 1.143 | 0.3927 |  |
| PVHAGPIAP [CPEP87] |  |  | 1.084 |  | 0,6355 | 1,0155 | 0,8043 | 0,8845 | 0,906 | 0,7025 | 0.4 | 0.6567 | 0.2137 |  |
| LGQGVSIEW [CPEP122] |  |  | 1.0126 |  | 0,6921 | 1,0256 | 0,854 | 0,9073 | 0,9191 | 0,7889 | 0.4311 | 0.7196 | 0.594 |  |
| EDLLNEPGQPLDLSC [CPEP104] | 0.2933 | 0.504 | 1.073 | 1.128 | 0,8372 | 0,8247 | 0,8954 | 0,9133 | 0,8771 | 0,8952 |  |  |  |  |
| LQQLL [CPEP130] |  |  | 0.7754 |  | 1,0055 | 0,8445 | 0,933 | 0,8513 | 0,8415 | 1,0245 | 1.886 | 1.354 | 0.1679 |  |
| PVQLSYYD [CPEP144] |  |  | 1.621 |  | 0,7318 | 1,0036 | 0,9081 | 0,8026 | 0,9626 | 0,8536 | 1.139 | 1.072 | 0.1325 | peptide inhibiting HCV |
